Some test systems named below: UO-31; 786-0; SNB-19; HCT-15; RXF 393; OVCAR-3; SK-MEL-2; UACC-62; Malme-3M; ACHN; K562; TK-10; LOX IMVI; NCI-H460; MDA-MB-231; HCT-116; A498; KM12; MCF7; SR.
What all share (assay): NCI tumour cell line growth inhibition, 48 h

Each structure is given as a SMILES string.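 These data come from cells grown in 96-well plates and exposed to compound for 48 hours at five concentrations. The concentration for 50% growth inhibition is given as GI50.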 Calls of active or inactive are those of the source. No stated cut-off is given here; in the data, active = GI50 up to about 1.1 µM and inactive = higher.

Regarding `c1ccc(CCN2CCCCCC2)nc1`, the GI50 in the assay on UO-31 is > 100 µM (inactive); in the assay on 786-0, > 100 µM (inactive); with SNB-19, > 100 µM (inactive); in the assay on HCT-15, more than 100 µM; in the assay with RXF 393, > 100 µM (inactive); in the assay on OVCAR-3 it was > 100 µM (inactive). Also, the GI50 in the assay with SK-MEL-2, with UACC-62, in the assay on Malme-3M, in the assay with ACHN, in the assay on K562 and in the assay with TK-10 was > 100 µM (inactive) throughout. For the same compound, the GI50 with LOX IMVI, in the assay with NCI-H460, in the assay on MDA-MB-231, in the assay on HCT-116, in the assay on A498 and in the assay on KM12 was > 100 µM (inactive) throughout. Also, the GI50 in the assay with MCF7 is > 100 µM (inactive).

In the case of `COc1cc2cc(C(=O)N3CC(COS(C)(=O)=O)c4c3cc([N+](=O)[O-])c3ccccc43)[nH]c2c(OC)c1OC` (stereo unspecified), the GI50 was 2.56 µM (inactive) in the assay on UO-31; 0.752 µM (active) with 786-0; > 31.6 µM (inactive) in the assay with SNB-19; more than 31.6 µM in the assay with HCT-15; 18.3 µM (inactive) with RXF 393; > 31.6 µM (inactive) with OVCAR-3. Besides, the GI50 with SK-MEL-2 is 7.71 µM (inactive); with UACC-62, 2.74 µM (inactive); with ACHN it was 0.547 µM (active); with K562 it was > 100 µM (inactive); in the assay on TK-10 it was > 31.6 µM (inactive); in the assay with LOX IMVI, 33.2 µM (inactive). The GI50 with NCI-H460 was 0.0986 µM (active); in the assay with MDA-MB-231 it was 60.4 µM (inactive); in the assay with HCT-116, 1.24 µM (inactive); with A498, 10.7 µM (inactive); with KM12, 30.1 µM (inactive); in the assay on MCF7, 2 µM (inactive).

On to `CCOC(=O)/C(C(=O)Nc1cccc(Cl)c1)=C(/N)N1CCOCC1`, for which the GI50 is > 100 µM (inactive) in the assay on 786-0; > 100 µM (inactive) with SNB-19; more than 100 µM in the assay with HCT-15; > 100 µM (inactive) in the assay on RXF 393; > 100 µM (inactive) with OVCAR-3; > 100 µM (inactive) in the assay on SK-MEL-2. Also, the GI50 with UACC-62, in the assay with Malme-3M, in the assay on ACHN, in the assay with K562, in the assay with TK-10 and in the assay with LOX IMVI was > 100 µM (inactive) throughout. Besides, the GI50 in the assay with NCI-H460, with MDA-MB-231, in the assay on HCT-116, with A498, in the assay with KM12 and with MCF7 was > 100 µM (inactive) throughout.

For the compound `O=C(N/C(=C\NC1=NCCS1)C(=O)N1CSC[C@@H]1C(=O)O)c1ccccc1`, the GI50 was > 100 µM (inactive) in the assay on UO-31; 77.8 µM (inactive) with 786-0; > 100 µM (inactive) in the assay with SNB-19; more than 100 µM with HCT-15; > 100 µM (inactive) with RXF 393; > 100 µM (inactive) with OVCAR-3. For the same compound, the GI50 in the assay with UACC-62, in the assay with ACHN, in the assay on K562, in the assay on TK-10, in the assay with LOX IMVI and in the assay with NCI-H460 was > 100 µM (inactive) in each case. In addition, the GI50 with MDA-MB-231, in the assay on HCT-116, in the assay with A498, with KM12 and in the assay on MCF7 was > 100 µM (inactive) each time.

As to `C=C(C)C1=CCC[C@]2(C1)N=C(OC)[C@@H](C(C)C)N=C2OC`, the GI50 with UO-31 was 96.4 µM (inactive); with 786-0, > 100 µM (inactive); with SNB-19, > 100 µM (inactive); in the assay on HCT-15, more than 100 µM; in the assay on OVCAR-3 it was > 100 µM (inactive); in the assay with SK-MEL-2, > 100 µM (inactive). Moreover, the GI50 with UACC-62, with Malme-3M, in the assay with ACHN, with TK-10, in the assay on NCI-H460 and with MDA-MB-231 was > 100 µM (inactive) throughout. Further, the GI50 is > 100 µM (inactive) with HCT-116, > 100 µM (inactive) with A498, > 100 µM (inactive) in the assay with KM12 and 92.7 µM (inactive) in the assay with MCF7.

Regarding `CC(=O)O[C@H]1C#C/C=C\C#CC[C@@H]2C(=O)N[C@@H]12`, the GI50 was 3.13 µM (inactive) in the assay on UO-31; 5.42 µM (inactive) in the assay on 786-0; 31.3 µM (inactive) in the assay with SNB-19; 22.4 µM in the assay with HCT-15; 23.2 µM (inactive) with RXF 393; > 78.3 µM (inactive) in the assay with OVCAR-3. Besides, the GI50 is 67.8 µM (inactive) with SK-MEL-2; 26.4 µM (inactive) in the assay with UACC-62; 22.9 µM (inactive) in the assay on Malme-3M; 3.5 µM (inactive) in the assay with ACHN; > 62.8 µM (inactive) in the assay on K562; > 59.7 µM (inactive) in the assay on TK-10. The GI50 with LOX IMVI is 7.78 µM (inactive); in the assay with NCI-H460, 0.0382 µM (active); in the assay on MDA-MB-231, > 100 µM (inactive); in the assay on HCT-116, 27 µM (inactive); with A498 it was 21.6 µM (inactive); with KM12, > 100 µM (inactive). Further, the GI50 with MCF7 was 4 µM (inactive).

For the compound `OCC1C(O)C(O)[C@@H]2SCCN12` (stereo partly specified), the GI50 is > 100 µM (inactive) in the assay with UO-31; > 100 µM (inactive) in the assay with 786-0; > 100 µM (inactive) with SNB-19; more than 100 µM with HCT-15; > 100 µM (inactive) in the assay with RXF 393; > 100 µM (inactive) in the assay on OVCAR-3. Moreover, the GI50 with SK-MEL-2, in the assay with SR, in the assay with UACC-62, in the assay on Malme-3M, with ACHN and in the assay on K562 was > 100 µM (inactive) in each case. Moreover, the GI50 in the assay on TK-10, in the assay with LOX IMVI, in the assay on NCI-H460, in the assay on MDA-MB-231, in the assay on HCT-116 and in the assay with A498 was > 100 µM (inactive) throughout. For the same compound, the GI50 with KM12 is > 100 µM (inactive).

For `CN(C)CCNc1nc2ccccc2c2c1CCCC2`, the GI50 was 11.2 µM (inactive) with UO-31; 16.4 µM (inactive) in the assay with 786-0; 29.9 µM (inactive) with SNB-19; 32 µM with HCT-15; 8.65 µM (inactive) in the assay with RXF 393; 30.8 µM (inactive) in the assay with OVCAR-3. For the same compound, the GI50 in the assay with SK-MEL-2 was 17.2 µM (inactive); in the assay on UACC-62, 16.4 µM (inactive); in the assay on Malme-3M, 16.3 µM (inactive); in the assay on ACHN it was 23.9 µM (inactive); with K562 it was 20.3 µM (inactive); in the assay on TK-10 it was 14.5 µM (inactive). For the same compound, the GI50 with LOX IMVI was 17.8 µM (inactive); in the assay with NCI-H460 it was 16 µM (inactive); with MDA-MB-231, 14.7 µM (inactive); in the assay on HCT-116, 14.8 µM (inactive); with A498, 17.2 µM (inactive); with KM12, 19.3 µM (inactive). For the same compound, in the assay on MCF7, the GI50 was 14.8 µM (inactive).

Consider `O=C(CBr)N1CCC2(CC1)SSC1(CCN(C(=O)CBr)CC1)S2`, for which the GI50 in the assay on UO-31 is 0.593 µM (active); with 786-0 it was 0.614 µM (active); with SNB-19, 1.58 µM (inactive); in the assay on HCT-15 it was 1.44 µM; in the assay on SR, 0.178 µM (active); in the assay with UACC-62, 1.47 µM (inactive). Moreover, the GI50 with ACHN is 1.54 µM (inactive); with K562 it was 0.647 µM (active); in the assay with LOX IMVI, 0.064 µM (active); in the assay on NCI-H460 it was 1.81 µM (inactive); in the assay on MDA-MB-231, 2.33 µM (inactive); in the assay with HCT-116, 0.373 µM (active). For the same compound, the GI50 in the assay on KM12 is 1.7 µM (inactive).

For `[O-][n+]1onc(-c2ccccc2)c1CN1CCOCC1`, the GI50 was 77.1 µM (inactive) in the assay with UO-31; > 100 µM (inactive) with 786-0; > 100 µM (inactive) with SNB-19; 72.9 µM with HCT-15; > 100 µM (inactive) in the assay on RXF 393; 93.1 µM (inactive) in the assay on OVCAR-3. Moreover, the GI50 is > 100 µM (inactive) in the assay with SK-MEL-2; 68.1 µM (inactive) in the assay on UACC-62; > 100 µM (inactive) with Malme-3M; > 100 µM (inactive) in the assay with ACHN; 51.2 µM (inactive) with K562; > 100 µM (inactive) with TK-10. The GI50 was 71.8 µM (inactive) with LOX IMVI; > 100 µM (inactive) with NCI-H460; > 100 µM (inactive) in the assay with MDA-MB-231; > 100 µM (inactive) with HCT-116; 61.9 µM (inactive) in the assay with A498; > 100 µM (inactive) with KM12. The GI50 in the assay with MCF7 is > 100 µM (inactive).

On to `O=C(Nc1ccc(Cl)cc1)NS(=O)(=O)c1ccc2c(c1)CCC2` [SULOFENUR], for which the GI50 was 25.1 µM (inactive) with UO-31; 35.3 µM (inactive) in the assay on 786-0; 40.9 µM (inactive) in the assay with SNB-19; 35.6 µM in the assay on HCT-15; 27.9 µM (inactive) in the assay with RXF 393; 24.3 µM (inactive) in the assay with OVCAR-3. Further, the GI50 in the assay on SK-MEL-2 was 43.8 µM (inactive); with SR, > 57 µM (inactive); with UACC-62, 23.9 µM (inactive); in the assay on Malme-3M, 24.5 µM (inactive); in the assay on ACHN it was 29.4 µM (inactive); in the assay on K562, 10.2 µM (inactive). In addition, the GI50 was 40.5 µM (inactive) in the assay on TK-10; 37.6 µM (inactive) with LOX IMVI; 24.4 µM (inactive) in the assay with NCI-H460; 26.2 µM (inactive) in the assay with HCT-116; 45 µM (inactive) in the assay on A498; 36.1 µM (inactive) in the assay with KM12. Also, the GI50 in the assay on MCF7 was 24.1 µM (inactive).

The record behind these values is ChEMBL document CHEMBL1201862, “PubChem BioAssay data set” (2004).
